# Values quoted from earlier work, collected in patent US20010053349A1, “Artificial nail sanitizing solution” (priority 2000, published 2001).
# Tested on: nail fungus
# Details: oral compounds; average; treatment of documented nail fungus
structure (smiles),measurement,value
CN(C/C=C/C#CC(C)(C)C)Cc1cccc2ccccc12 [terbinafine],Clinical and mycological cure rates,70%
